Measured values: patent publication EP0476408A1, “Chemical conjugation of morpholino anthracyclines to antibodies” (RESEARCH CORPORATION TECHNOLOGIES, INC., priority 1990, dated 1992)

Tested on: A-375 cells
Experiment: Cytotoxicity of conjugate versus uncoupled drug, serial dilutions
Assay type: cell-based
Conditions: drug alone versus conjugate, Figure 6

With `COc1cccc2c1C(=O)c1c(O)c3c(c(O)c1C2=O)C[C@@](O)(C(=O)CO)C[C@@H]3O[C@H]1C[C@H](N2CCOCC2)[C@H](O)[C@H](C)O1` [MRA, morpholino doxorubicin] the cytotoxicity was “Identical cytoxicity”.
